# Assay results: patent publication US6410561B1, “Amide derivatives and nociceptin antagonists” (Japan Tobacco Inc., priority 1998, dated 2002)
# Like-named read-outs stand apart in the source and are kept apart here.
# Experiments:
# ORL-1 receptor = target: T1, ORL-1 receptor (Homo sapiens, UniProt P41146); test: ORL1 receptor binding assay ([3H]nociceptin); settings: for Ki: calculated from IC50 and Kd of [3H]nociceptin; for IC50: membrane of human ORL-1 expression cells, [3H]nociceptin 0.5 nM
# T1 construct: expressed in transfected cells
# T1 sequence (P41146 whole entry): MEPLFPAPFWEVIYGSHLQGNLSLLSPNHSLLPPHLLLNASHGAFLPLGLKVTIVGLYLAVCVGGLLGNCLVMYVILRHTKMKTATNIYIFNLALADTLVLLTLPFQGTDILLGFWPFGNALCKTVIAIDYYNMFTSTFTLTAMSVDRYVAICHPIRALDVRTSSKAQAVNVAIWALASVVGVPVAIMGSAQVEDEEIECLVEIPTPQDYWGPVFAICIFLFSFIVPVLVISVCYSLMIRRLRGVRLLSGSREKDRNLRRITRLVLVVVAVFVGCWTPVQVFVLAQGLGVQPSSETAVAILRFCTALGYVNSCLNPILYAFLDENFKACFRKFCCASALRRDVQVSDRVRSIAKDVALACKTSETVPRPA
# Description: ORL1 Receptor Binding Assay
# A cell membrane suspension obtained from human ORL-1 expression cells was adjusted with Tris buffer [50 mM Tris, 2 mM EDTA, 0.1 mM (p-Amidinophenyl)methanesulfonyl Fluoride Hydrochloride (p-APMSF), 2 mg/ml BSA] to membrane protein amount of about 25 μg/ml (2.5 μg/well). This was mixed with [^3H]nociceptin (diluted with Tris buffer to a final concentration of 0.5 nM) and test compound (diluted with Tris buffer to a final concentration of 10 nM-10 μM), and the mixture was incubated at room temperature for 60 min. The membrane was recovered on a G/F-B filter (Packard, Unifilter 96GF/B) using a cell harvester and the reaction was stopped. After washing 3 times, the filter was dried at 42° C. for 1 hr. A scintillation solution (Packard, microscint-20) was added and the radioactivity (Packard, Top count A9912V) was assayed.
# (§1) The nonspecific binding was the binding in the presence of 1 μM nociceptin and the difference between the total binding and nonspecific binding was taken as the specific binding. IC50 was calculated from inhibition of specific binding at each concentration of the compound, and Ki value of the test compound was calculated from this value and Kd value of [^3H]nociceptin.
# μ receptor = target: T2, μ receptor (Rattus norvegicus, UniProt P33535); test: μ receptor binding assay ([3H]DAMGO); settings: for Ki: calculated from IC50 and Kd of [3H]DAMGO; for IC50: rat cerebrum membrane, [3H]DAMGO 1 nM
# T2 construct: Rat cerebrum membrane standard sample; from tissue; host or cells: rat cerebrum membranes
# T2 sequence (P33535 whole entry): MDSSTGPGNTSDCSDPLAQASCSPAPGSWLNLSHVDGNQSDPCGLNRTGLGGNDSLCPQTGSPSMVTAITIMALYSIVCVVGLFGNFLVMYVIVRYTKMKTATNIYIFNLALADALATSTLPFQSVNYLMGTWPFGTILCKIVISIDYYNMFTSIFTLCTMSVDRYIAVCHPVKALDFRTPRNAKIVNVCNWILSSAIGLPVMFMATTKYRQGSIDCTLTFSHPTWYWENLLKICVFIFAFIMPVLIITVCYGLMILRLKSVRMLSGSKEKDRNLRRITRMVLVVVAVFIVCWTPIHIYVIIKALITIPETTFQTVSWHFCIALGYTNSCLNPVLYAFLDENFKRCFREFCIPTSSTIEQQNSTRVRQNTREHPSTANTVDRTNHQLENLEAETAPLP
# Description: Rat cerebrum membrane standard sample (final concentration 0.755 mg·protein/ml), [^3H]DAMGO (Try-D-Ala-Gly-NMe-Phe-Gly-ol) [diluted with Tris buffer (50 mM Tris-HCl, 0.1 mM p-APMSF, 2 mg/ml BSA (pH=7.4)) to a final concentration of 1 nM] and test compound (diluted with Tris buffer to a final concentration of 10 nM-10 μM) were mixed, and the mixture was incubated at room temperature for 90 min. The membrane was recovered on a G/F-B filter (same as above) using a cell harvester and the reaction was stopped. After washing 3 times, the filter was dried at 42° C. for 1 hr. A scintillation solution (same as above) was added and the radioactivity (same as above) was assayed.
# as §1, with “10” for “1”, “naloxone” for “nociceptin”, “[^3H]DAMGO.” for “[^3H]nociceptin.”
# allodynia model = test: Allodynia test (intrathecal nociceptin, tactile stimulation); type: in vivo, Mice; settings: Mus musculus, read-out: Allodynia M.E.D. (minimum effective dose)
# Description: Mice (Crj, ICR, 4-week-old, male) were intrathecally administered with nociceptin (50 pg/5 μl) without anesthesia. For 20 min after administration and at 5 min intervals, an area from lateral region to tail of the mice was rubbed with a brush and the response of the mice was observed. The evaluation followed the criteria of 0; no change, 1; run or cry upon tactile stimulation, and 2; cry loud or dash away upon tactile stimulation. The test compound was suspended in a 0.5% MC solution and orally administered 60 min before nociceptin administration. The significant difference of the score of each administration group at 20 min after nociceptin administration from the group administered with solvent was analyzed with Mann-Whitny U-test.
# Mice = test: Hot-plate test; type: in vivo; settings: Mus musculus, 1 h, oral, 60 min after administration, 55.5°C, read-out: Hot-plate M.E.D. (minimum effective dose)
# Description: Mice (Crj, ICR, 4-week-old, male) were placed on a hot-plate (temperature 55.5±0.5° C.) and the time until the mice jumped and tried to run away was recorded. The mice were grouped according to the time and body weight so that the groups were evenly membered. The test compound was suspended in a 0.5% methylcellulose (MC) solution and orally administered to mice. After 60 min, the mice were again placed on a hot-plate and the time until they licked the hindlimb or jumped and tried to run away was recorded. The significant difference from the group administered with solvent was analyzed with ANOVA followed by Dunnett two-tailed test.
# [1] = mice, oral, 60 min before nociceptin 50 pg i.t., score at 20 min
compound,measurement,setting,value
"Cc1cc(N)c2cc(NC(=O)c3ccccc3COc3ccc(Br)cc3)ccc2n1.Cl [Example 33, N-(4-amino-2-methyl-6-quinolyl)-2-[(4-bromophenoxy)methyl]benzamide hydrochloride]",Ki,ORL-1 receptor,5 nM
same,IC50,ORL-1 receptor,90 nM
same,melting point,,252 °C
same,Ki,μ receptor,565 nM
same,IC50,μ receptor,1440 nM
same,minimal effective dose,allodynia model; [1],0.3 mg/kg
"Cc1cc(N)c2cc(NC(=O)c3ccccc3COc3ccc(C(C)(C)C)cc3)ccc2n1.Cl [Example 29, N-(4-amino-2-methyl-6-quinolyl)-2-[(4-tert-butylphenoxy)methyl]benzamide hydrochloride]",Ki,ORL-1 receptor,9 nM
same,IC50,ORL-1 receptor,160 nM
same,melting point,,268 °C
same,Ki,μ receptor,414 nM
same,IC50,μ receptor,1050 nM
same,minimal effective dose,allodynia model; [1],> 0.3 mg/kg
same,minimal effective dose,Mice,3 mg/kg
"CC(=O)c1ccc(OCc2ccccc2C(=O)Nc2ccc3nc(C)cc(N)c3c2)cc1.Cl [Example 12, N-(4-amino-2-methyl-6-quinolyl)-2-[(4-acetylphenoxy)methyl]benzamide hydrochloride]",Ki,ORL-1 receptor,8 nM
same,IC50,ORL-1 receptor,160 nM
same,melting point,,270 °C
same,Ki,μ receptor,254 nM
same,IC50,μ receptor,670 nM
same,minimal effective dose,allodynia model; [1],0.3 mg/kg
same,minimal effective dose,Mice,3 mg/kg
"Cc1ccc(OCc2ccccc2C(=O)Nc2ccc3nc(C)cc(N)c3c2)cc1.Cl [Example 17, N-(4-amino-2-methyl-6-quinolyl)-2-[(4-methylphenoxy)methyl]benzamide hydrochloride]",IC50,ORL-1 receptor,130 nM
same,melting point,,255 °C
same,Ki,μ receptor,385 nM
same,IC50,μ receptor,1020 nM
same,minimal effective dose,allodynia model; po,0.3 mg/kg
same,minimal effective dose,Mice,1 mg/kg
CCc1cc(N)c2cc(NC(=O)c3ccccc3COc3ccc(Cl)cc3)ccc2n1.Cl [Example 49],Ki,ORL-1 receptor,2 nM
same,IC50,ORL-1 receptor,40 nM
same,Ki,μ receptor,464 nM
same,IC50,μ receptor,1260 nM
same,minimal effective dose,allodynia model; [1],0.3 mg/kg
same,minimal effective dose,Mice,1 mg/kg
COc1ccc(CCc2ccccc2C(=O)Nc2ccc3nc(C)cc(N)c3c2)cc1.Cl [Example 84],Ki,ORL-1 receptor,129 nM
same,IC50,ORL-1 receptor,2520 nM
same,melting point,,285 °C
same,Ki,μ receptor,419 nM
same,IC50,μ receptor,1110 nM
same,minimal effective dose,allodynia model; [1],< 3 mg/kg
same,minimal effective dose,Mice,> 10 mg/kg
"CCc1ccc(OCc2ccccc2C(=O)Nc2ccc3nc(C)cc(N)c3c2)cc1.Cl [Example 1, N-(4-amino-2-methyl-6-quinolyl)-2-[(4-ethylphenoxy)methyl]-benzamide hydrochloride]",Ki,ORL-1 receptor,7 nM
same,IC50,ORL-1 receptor,120 nM
same,Ki,μ receptor,570 nM
same,IC50,μ receptor,1520 nM
same,minimal effective dose,allodynia model; [1],0.3 mg/kg
same,minimal effective dose,Mice,1 mg/kg
CCc1ccc(OCc2ccccc2C(=O)Nc2ccc3nc(CC)cc(N)c3c2)c(Cl)c1 [Example 90],Ki,ORL-1 receptor,5 nM
same,IC50,ORL-1 receptor,110 nM
same,Ki,μ receptor,442 nM
same,IC50,μ receptor,1180 nM
same,minimal effective dose,Mice,3 mg/kg
"COc1ccc(OCc2ccccc2C(=O)Nc2ccc3nc(C)cc(N)c3c2)cc1.Cl [Example 4, N-(4-amino-2-methyl-6-quinolyl)-2-[(4-methoxyphenoxy)methyl]benzamide hydrochloride]",melting point,,276 °C
same,Ki,μ receptor,453 nM
same,IC50,μ receptor,1260 nM
same,minimal effective dose,allodynia model; po,< 1 mg/kg
same,minimal effective dose,Mice,< 3 mg/kg
Cc1cc(N)c2cc(NC(=O)c3ccccc3CCCCCOc3ccccc3)ccc2n1.Cl [Example 64],Ki,ORL-1 receptor,73 nM
same,IC50,ORL-1 receptor,1390 nM
same,melting point,,253 °C
same,Ki,μ receptor,1380 nM
same,IC50,μ receptor,3610 nM
same,minimal effective dose,allodynia model; [1],> 3 mg/kg
"Cc1cc(N)c2cc(NC(=O)c3ccccc3COc3ccc(Cl)c(C)c3)ccc2n1.Cl [Example 42, N-(4-amino-2-methyl-6-quinolyl)-2-[(4-chloro-3-methylphenoxy)methyl]benzamide hydrochloride]",Ki,ORL-1 receptor,4 nM
same,IC50,ORL-1 receptor,80 nM
same,Ki,μ receptor,745 nM
same,IC50,μ receptor,1990 nM
same,minimal effective dose,allodynia model; [1],0.3 mg/kg
same,minimal effective dose,Mice,1 mg/kg
"Cc1cc(N)c2cc(NC(=O)c3ccccc3COc3ccc(C(F)(F)F)cc3)ccc2n1.Cl [Example 18, N-(4-amino-2-methyl-6-quinolyl)-2-[(4-trifluoromethylphenoxy)methyl]benzamide hydrochloride]",Ki,ORL-1 receptor,4 nM
same,IC50,ORL-1 receptor,90 nM
same,melting point,,220 °C
same,Ki,μ receptor,393 nM
same,IC50,μ receptor,1040 nM
same,minimal effective dose,allodynia model; [1],0.3 mg/kg
"Cc1cccc(OCc2ccccc2C(=O)Nc2ccc3nc(C)cc(N)c3c2)c1 [Example 9, N-(4-amino-2-methyl-6-quinolyl)-2-[(3-methylphenoxy)methyl]benzamide]",Ki,ORL-1 receptor,16 nM
same,IC50,ORL-1 receptor,320 nM
same,Ki,μ receptor,764 nM
same,IC50,μ receptor,2030 nM
same,minimal effective dose,allodynia model; [1],1 mg/kg
same,minimal effective dose,Mice,< 3 mg/kg
"Cc1cc(C)cc(OCc2ccccc2C(=O)Nc2ccc3nc(C)cc(N)c3c2)c1.Cl [Example 5, N-(4-amino-2-methyl-6-quinolyl)-2-[(3,5-dimethylphenoxy)methyl]benzamide hydrochloride]",Ki,ORL-1 receptor,28 nM
same,IC50,ORL-1 receptor,520 nM
same,melting point,,265 °C
same,Ki,μ receptor,505 nM
same,IC50,μ receptor,1340 nM
same,minimal effective dose,allodynia model; [1],3 mg/kg
"Cc1ccc(OCc2ccccc2C(=O)Nc2ccc3nc(C)cc(N)c3c2)c(Cl)c1.Cl [Example 43, N-(4-amino-2-methyl-6-quinolyl)-2-[(2-chloro-4-methylphenoxy)methyl]benzamide hydrochloride]",Ki,ORL-1 receptor,5 nM
same,IC50,ORL-1 receptor,110 nM
same,Ki,μ receptor,785 nM
same,IC50,μ receptor,2100 nM
same,minimal effective dose,allodynia model; [1],0.3 mg/kg
same,minimal effective dose,Mice,1 mg/kg
"Cc1cc(N)c2cc(NC(=O)c3ccccc3COc3ccc([N+](=O)[O-])cc3)ccc2n1 [Example 7, N-(4-amino-2-methyl-6-quinolyl)-2-[(4-nitrophenoxy)methyl]benzamide]",melting point,,148 °C
same,Ki,μ receptor,346 nM
same,IC50,μ receptor,960 nM
same,minimal effective dose,allodynia model; [1],0.3 mg/kg
same,minimal effective dose,Mice,3 mg/kg
"Cc1cc(N)c2cc(NC(=O)c3ccccc3COc3ccccc3)ccc2n1.Cl [Example 3, N-(4-amino-2-methyl-6-quinolyl)-2-(phenoxymethyl)benzamide hydrochloride]",Ki,ORL-1 receptor,79 nM
same,IC50,ORL-1 receptor,1470 nM
same,Ki,μ receptor,417 nM
same,IC50,μ receptor,1110 nM
same,minimal effective dose,allodynia model; [1],3 mg/kg
same,minimal effective dose,Mice,30 mg/kg
Cc1cc(N)c2cc(NC(=O)c3ccccc3CCCCCCOc3ccccc3)ccc2n1.Cl [Example 66],Ki,ORL-1 receptor,108 nM
same,IC50,ORL-1 receptor,2000 nM
same,melting point,,210 °C
same,minimal effective dose,allodynia model; [1],> 3 mg/kg
"COc1cccc(OCc2ccccc2C(=O)Nc2ccc3nc(C)cc(N)c3c2)c1OC.Cl [Example 8, N-(4-amino-2-methyl-6-quinolyl)-2-[(2,3-dimethoxyphenoxy)methyl]benzamide hydrochloride]",Ki,ORL-1 receptor,50 nM
same,IC50,ORL-1 receptor,940 nM
same,melting point,,196 °C
same,Ki,μ receptor,183 nM
same,IC50,μ receptor,490 nM
same,minimal effective dose,allodynia model; [1],3 mg/kg
"CCCc1ccc(OCc2ccccc2C(=O)Nc2ccc3nc(C)cc(N)c3c2)cc1.Cl [Example 34, N-(4-amino-2-methyl-6-quinolyl)-2-[(4-propylphenoxy)methyl]benzamide hydrochloride]",Ki,ORL-1 receptor,8 nM
same,IC50,ORL-1 receptor,140 nM
same,Ki,μ receptor,888 nM
same,IC50,μ receptor,2370 nM
same,minimal effective dose,allodynia model; [1],0.3 mg/kg
same,minimal effective dose,Mice,3 mg/kg
